Measurements from patent US20220354949A1, “NOVEL COMPOUNDS” (XENIOPRO GmbH, priority 2018, published 2022).

Tested on: Notch signaling (human Notch1 receptor, hNotch1ΔE, CSL luciferase reporter in HeLa cells)
Experiment: Notch reporter assay (dual luciferase, HeLa cells transfected with hNotch1ΔE)
Type: cell-based
Settings: compounds and controls at 10 μM
Text: The activation level of Notch signaling can be quantified in vitro reliably by measuring the expression levels of Notch specific target genes. This can be accomplished by the quantification of corresponding mRNA or protein of a particular Notch target gene. Alternatively, cells can be genetically modified to carry a luciferase gene as an artificial Notch target gene, which is expressed in dependence of Notch activity. In this setting, Notch signaling levels can be quantified by measuring the luciferase-derived bioluminescence values.
An according Notch-reporter assay, i.e. a luciferase-based luminescence readout, was used here to quantify the ability of the claimed compounds to augment Notch signaling in a cellular system. […] After 24 hours of transfection, the transfected cells were carefully detached from the dish using 0.5 mM EDTA in PBS and seeded into 96-well plates suitable for luminescence readouts (CORNING, #3610) at 10′000 cells per well. […] Directly after the lysis, first the Firefly and then the Renilla luciferase values were measured consecutively from the same well with a luminescence reader immediately after applying 15 μL per well each of the corresponding enzyme substrates needed to create the luminescence signals (Promega, Dual-Luciferase® Reporter Assay System, #E1910). […]

Q: `Oc1ccc(C=Cc2cc(O)cc(O)c2)cc1` [RES, Resveratrol] was tested. Which “Activity Range: weighted arithmetic mean (AVEw) of double-normalized Notch-reporter luminescence, relative to DMSO basis level of 1.0” value did it give?
A: The value was 1.9 ± 0.5.
